Test results taken from patent US10604742B2, “Adsorptive membranes for trapping viruses” (Wisconsin Alumni Research Foundation, priority 2006, dated 2020).
Where two headings read alike, the source gives them in different places.

What was measured:
[1] = tested on: neutral virus φX174; assay: Function test 2: LRV for φX174 using functionalized membranes in flow mode, TE buffer pH 7.5; assay type: binding, bacteriophage φX174; details: for φX174 LRV: TE buffer pH 7.5
Source text: In these examples, the neutral virus φX174 is used because is one of five model non-pathogenic bacteriophage viruses commonly used in filtration studies to represent the gamut of physical properties of potential adventitious viruses of danger to humans (e.g., size, pI, presence or absence of a membrane). In short, the φX174 virus is an art-recognized virus for modeling viral clearance of dangerous pathogens.
Function test 2 measured the LRV for the neutral virus φX174 using the functionalized membranes in flow mode with TE buffer (10 mM Tris, 1 mM EDTA, pH 7.5) with and without added NaCl. Each ligand was immobilized onto regenerated cellulose membranes having 0.45 μm pore diameter using allyl glycidyl ether. The allylated membrane was then brominated. Lastly the ligand was coupled to the membrane via the primary amine on the ligand.

[2] = target: bovine serum albumin (BSA) (Bos taurus, UniProt P02769); assay: Function test 1: static BSA binding capacity of ligand-functionalized regenerated cellulose membranes (BCA method); details: 20 mM piperazine, pH 6.0
Sequence of bovine serum albumin (BSA) (P02769 25-607): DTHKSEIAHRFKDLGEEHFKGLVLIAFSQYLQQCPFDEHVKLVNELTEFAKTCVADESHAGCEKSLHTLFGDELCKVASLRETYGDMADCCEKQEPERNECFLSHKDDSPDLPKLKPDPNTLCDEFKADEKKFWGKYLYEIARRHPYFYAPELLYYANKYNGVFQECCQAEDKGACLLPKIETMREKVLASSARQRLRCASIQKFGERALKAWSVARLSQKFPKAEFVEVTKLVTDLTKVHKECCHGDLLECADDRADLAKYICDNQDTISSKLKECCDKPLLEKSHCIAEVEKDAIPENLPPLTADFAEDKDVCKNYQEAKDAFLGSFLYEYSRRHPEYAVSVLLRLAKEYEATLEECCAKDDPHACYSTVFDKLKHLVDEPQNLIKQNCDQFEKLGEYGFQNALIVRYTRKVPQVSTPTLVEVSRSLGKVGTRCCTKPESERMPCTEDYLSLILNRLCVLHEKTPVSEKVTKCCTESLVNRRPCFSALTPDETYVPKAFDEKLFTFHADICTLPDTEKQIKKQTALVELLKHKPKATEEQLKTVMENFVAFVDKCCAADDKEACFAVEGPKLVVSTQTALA
Procedure: These ligands were evaluated using two different function tests. In the first function test, bovine serum albumin (BSA) in 20 mM piperazine, pH 6.0, with and without added NaCl, was incubated with a functionalized regenerated cellulose membrane. Bound BSA was then measured using the bicinchoninic acid (BCA) colorimetric method. Function test 1 measured the static protein binding capacity of the membranes under conditions where the pH was close to the isoelectric point of the protein (pI of BSA=5.1). In this function test, the protein had only a weak charge and was sensitive to added salt. This first function test was designed to mimic the binding of a neutral virus where the charge is weak.
Each ligand was immobilized onto regenerated cellulose membranes having 0.45 μm pore diameter using allyl glycidyl ether. The allylated membrane was then brominated. Lastly the ligand was coupled to the membrane via the primary amine on the ligand.

[3] = cited from earlier work
[4] = tested on: φX174; details: cited from earlier work
[5] = tested on: neutral virus φX174; assay: Example 3: φX174 clearance by AGM membrane in presence of basic protein ribonuclease A (FIG. 10); assay type: binding, bacteriophage φX174; details: 0.5 g/L ribonuclease A, TE buffer pH 7.5, with and without added NaCl
Procedure: FIG. 10 is a graph depicting the performance of a virus-trapping membrane containing the immobilized ligand agmatine to remove a neutral virus (φX174) from a solution comprising a basic protein (0.5 g/L ribonuclease) and different concentrations of salt (□=0 mM NaCl; ▴=50 mM NaCl; ▪=150 mM NaCl).
AGM, for example, meets these requirements. […] According to the methods of Example 2, a disposable, micro-porous, regenerated-cellulose virus-trapping membrane was fabricated containing the ligand AGM immobilized on the membrane. The basic protein ribonuclease A (pI˜9.5) was used as a mAb surrogate. A feed solution comprising the neutral virus φX174 and 0.5 g/L of the basic protein ribonuclease A, both dissolved in TE buffer (10 mM Tris, 1 mM EDTA, pH 7.5), with and without added NaCl, was loaded into the membrane. Viral clearance was not reduced by the presence of the basic protein.

[6] = high-salt buffer (23 mS/cm); cited from earlier work

Row | SMILES | φX174 LRV ([1]; 0 mM NaCl) | φX174 LRV ([1]; 50 mM NaCl) | φX174 LRV ([1]; 150 mM NaCl) | BSA Static Capacity ([2]; 0 mM NaCl) [mg/m^2] | BSA Static Capacity ([2]; 50 mM NaCl) [mg/m^2] | BSA Static Capacity ([2]; 150 mM NaCl) [mg/m^2] | pKa [3] | viral clearance of φX174 (LRV) ([4]; 0 mM salt) | viral clearance of φX174 (LRV) ([4]; 0 mM salt, listed as “MUSTANG”® Q-brand adsorptive ligand) | viral clearance of φX174 (LRV) ([4]; 50 mM salt) | viral clearance of φX174 (LRV) ([4]; 50 mM salt, listed as “MUSTANG”® Q-brand adsorptive ligand) | φX174 clearance (LRV) in the presence of salt ([1]; in the presence of salt (50 and 150 mM)) | salt tolerance of viral clearance ([1]; moderate salt concentration) | charge at neutral pH [3] | viral clearance (LRV) of φX174 after adding the basic protein [5] | dynamic binding capacity greater than the average of the five best non-aromatic anion-exchange ligands [6] [%] | dynamic binding capacity relative to the Q ligand [6] [times]
1 | Nc1nc2ccccc2[nH]1 [ABI, 2-aminobenzimidazole] | 5.4 | 1.8 | 1.0 | 414 | 204 | 108 |  |  |  |  |  |  |  |  |  |  | 
2 | C[N+](C)(C)CCN.[Cl-] [AETMA, 2-aminoethyltrimethylammonium chloride, reference compound] | 6.6 | 0.1 | 0.1 | 551 | 42 | 10 | >12 | six | 6 | 1 | less than 1 LRV | ≈ 0.1 | not salt tolerant |  |  |  | 
3 | N=C(N)NCCCCN [AGM, Agmatine] | 5.5 | 5.5 | 5.9 | 1000 | 319 | 116 |  |  |  |  |  |  |  | positive charge | ≈ 6.0 |  | 
4 | NCC(O)CN [DHP, 1,3-diamino-2-hydroxypropane] | 5.4 | 2.1 | 0.1 | 946 | 392 | 85 |  |  |  |  |  |  |  |  |  |  | 
5 | NCC(O)c1ccc(O)cc1 (stereo not shown) [OCT, Octopamine] | 5.4 | 1.1 | 0.7 | 280 | 290 | 250 |  |  |  |  |  |  |  |  |  |  | 
6 | N[C@H](CO)Cc1ccccc1 [PHA, Phenylalaninol] | 2.8 | 0.1 | 0.0 | 330 | 46 | 10 |  |  |  |  |  |  |  |  |  |  | 
7 | NCCN(CCN)CCN [TAEA, tris(2-aminoethyl)amine] | 7.6 | 5.8 | 5.1 |  |  |  |  |  |  |  |  |  |  |  |  |  | 
8 | N[C@H](CO)Cc1c[nH]c2ccccc12 [TRP, Tryptophanol] | 5.4 | 1.1 | 1.0 | 668 | 297 | 131 |  |  |  |  |  |  |  |  |  |  | 
9 | N[C@H](CO)Cc1ccc(O)cc1 [TYR, Tyrosinol] | 6.4 | 2.7 | 0.9 | 638 | 284 | 137 | 10.8 |  |  |  |  |  |  | positively charged |  | 63 | 36
